Measured values taken from patent US10570122B2, “Compounds with anti-tumoral activity” (AB Science, priority 2015, dated 2020).

Key:
ACHN = assay: CellTiter-Blue cell-based survival/proliferation assay, ACHN; conditions: Homo sapiens; ACHN kidney tumor cell line, 48 h
Protocol: (§1) Cell-Based Proliferation Screening of Compounds
(§2) CellTiter-Blue cell-based survival/proliferation assay (Promega G8080) was performed on tumor cell lines. A total of 1·10^4 cells/well/50 μl were seeded in a 96-wells plate. Treatment was initiated by addition of a 2× drug solution of 1/10 serial dilutions ranging from 0 to 10 μM. Cells were grown for 48 h at 37° C. and then incubated with 10 μl/well of Promega CellTiter-Bleue reagent for 4 h at 37° C. The amount of resorufin dye formed was quantified by its fluorescence emission at 590 nm using a scanning multiwell spectrophotometer (OPTIMA, BMG labtech, France). A blank well without cells was used as a background control for the spectrophotometer.

HGC27 = assay: CellTiter-Blue cell-based survival/proliferation assay, HGC27; conditions: Homo sapiens, HGC-27; HGC27 stomach tumor cell line, 48 h
Protocol: as §1, §2

SW579 = assay: CellTiter-Blue cell-based survival/proliferation assay, SW579; conditions: Homo sapiens; SW579 head & neck tumor cell line, 48 h
Protocol: as §1, §2

HEP2 = assay: CellTiter-Blue cell-based survival/proliferation assay, HEP2; conditions: Homo sapiens, HEp-2; HEP2 head & neck tumor cell line, 48 h
Protocol: as §1, §2

CLS354 = assay: CellTiter-Blue cell-based survival/proliferation assay, CLS354; conditions: Homo sapiens, CLS-354; CLS354_4 head & neck tumor cell line, 48 h
Protocol: as §1, §2

A498 = assay: CellTiter-Blue cell-based survival/proliferation assay, A498; conditions: Homo sapiens; A498 kidney tumor cell line, 48 h
Protocol: as §1, §2

DU145 = assay: CellTiter-Blue cell-based survival/proliferation assay, DU145; conditions: Homo sapiens, DU-145; DU145 prostate tumor cell line, 48 h
Protocol: as §1, §2

MESSA = assay: CellTiter-Blue cell-based survival/proliferation assay, MESSA; conditions: Homo sapiens, MES-SA; MESSA ovary tumor cell line, 48 h
Protocol: as §1, §2

DLD1 = assay: CellTiter-Blue cell-based survival/proliferation assay, DLD1; conditions: Homo sapiens, DLD-1; DLD_1 colorectal tumor cell line, 48 h
Protocol: as §1, §2

OPM2 = assay: CellTiter-Blue cell-based survival/proliferation assay, OPM2; conditions: Homo sapiens, OPM-2, Myeloma cell line OPM2, 48 h, read-out: Anti-tumoral activity (measured IC50) OPM2
Protocol: as §1, §2

TOV112D = assay: CellTiter-Blue cell-based survival/proliferation assay, TOV112D; conditions: Homo sapiens; TOV112D ovary tumor cell line, 48 h
Protocol: as §1, §2

AGS = assay: CellTiter-Blue cell-based survival/proliferation assay, AGS; conditions: Homo sapiens; AGS stomach tumor cell line, 48 h
Protocol: as §1, §2

MDAMB231 = assay: CellTiter-Blue cell-based survival/proliferation assay, MDAMB231; conditions: Homo sapiens, MDA-MB-231; MDAMB231 breast tumor cell line, 48 h
Protocol: as §1, §2

A549 = assay: CellTiter-Blue cell-based survival/proliferation assay, A549; conditions: Homo sapiens; A549 lung tumor cell line, 48 h
Protocol: as §1, §2

HUT78 = assay: CellTiter-Blue cell-based survival/proliferation assay, HUT78; conditions: Homo sapiens, Lymphoma cell line HUT78, 48 h, read-out: Anti-tumoral activity (measured IC50) HUT78
Protocol: as §1, §2

HCT116 = assay: CellTiter-Blue cell-based survival/proliferation assay, HCT116; conditions: Homo sapiens, HCT-116; HCT116 colorectal tumor cell line, 48 h
Protocol: as §1, §2

BT20 = assay: CellTiter-Blue cell-based survival/proliferation assay, BT20; conditions: Homo sapiens, BT-20; BT20 breast tumor cell line, 48 h
Protocol: as §1, §2

KARPAS299 = assay: CellTiter-Blue cell-based survival/proliferation assay, KARPAS299; conditions: Homo sapiens, KARPAS-299, Lymphoma cell line KARPAS299, 48 h, read-out: Anti-tumoral activity (measured IC50) KARPAS299
Protocol: as §1, §2

PC3 = assay: CellTiter-Blue cell-based survival/proliferation assay, PC3; conditions: Homo sapiens, PC-3; PC3 prostate tumor cell line, 48 h
Protocol: as §1, §2

HEPG2 = assay: CellTiter-Blue cell-based survival/proliferation assay, HEPG2; conditions: Homo sapiens; HEPG2 liver tumor cell line, 48 h
Protocol: as §1, §2

PLCPRF5 = assay: CellTiter-Blue cell-based survival/proliferation assay, PLCPRF5; conditions: Homo sapiens, PLC-PRF-5; PLC_PRF5 liver tumor cell line, 48 h
Protocol: as §1, §2

[1] = test system: panel of about 34 human tumor cell lines; assay: Cell-based proliferation screening on panel of tumor cell lines; conditions: solid tumor cell line, cell line unknown, 48 h, read-out: IC50, solid tumor cell line of column 6 (last section of Table 3)
Protocol: Compounds of formula (I) were tested against a panel of about 34 human tumor cell lines representing 17 cancer type, namely leukemia (represented by 1 cell line), lymphoma (4 cell lines), myeloma (1 cell line), colorectal (2 cell lines), head and neck (3 cell lines), lung (3 cell lines), melanoma (2 cell lines), pancreas (2 cell lines), prostate (2 cell lines), ovary (2 cell lines) breast (2 cell lines), kidney (2 cell lines), stomach (2 cell lines), liver (2 cell lines), glioblastoma (2 cell lines), osteosarcoma (1 cell line), Ewing Sarcoma (1 cell line).
as §1, §2

REC1 = assay: CellTiter-Blue cell-based survival/proliferation assay, REC1; conditions: Homo sapiens, Lymphoma cell line REC1, 48 h, read-out: Anti-tumoral activity (measured IC50) REC1
Protocol: as §1, §2

BXPC3 = assay: CellTiter-Blue cell-based survival/proliferation assay, BXPC3; conditions: Homo sapiens, BXPC-3; BXPC3 pancreas tumor cell line, 48 h
Protocol: as §1, §2

H1299 = assay: CellTiter-Blue cell-based survival/proliferation assay, H1299; conditions: Homo sapiens, NCI-H1299; H1299 lung tumor cell line, 48 h
Protocol: as §1, §2

CALU6 = assay: CellTiter-Blue cell-based survival/proliferation assay, CALU6; conditions: Homo sapiens, Calu-6; CALU6 lung tumor cell line, 48 h
Protocol: as §1, §2

HL60 = assay: CellTiter-Blue cell-based survival/proliferation assay, HL60; conditions: Homo sapiens, HL-60, Leukemia cell line HL60, 48 h, read-out: Anti-tumoral activity (measured IC50) HL60
Protocol: as §1, §2

PANC1 = assay: CellTiter-Blue cell-based survival/proliferation assay, PANC1; conditions: Homo sapiens, PANC-1; PANC_1 pancreas tumor cell line, 48 h
Protocol: as §1, §2

SMILES | IC50 (ACHN) [µM] | IC50 (HGC27) [µM] | IC50 (SW579) [µM] | IC50 (HEP2) [µM] | IC50 (CLS354) [µM] | IC50 (A498) [µM] | IC50 (DU145) [µM] | IC50 (MESSA) [µM] | IC50 (DLD1) [µM] | IC50 (OPM2) [µM] | IC50 (TOV112D) [µM] | IC50 (AGS) [µM] | IC50 (MDAMB231) [µM] | IC50 (A549) [µM] | IC50 (HUT78) [µM] | IC50 (HCT116) [µM] | IC50 (BT20) [µM] | IC50 (KARPAS299) [µM] | IC50 (PC3) [µM] | IC50 (HEPG2) [µM] | other results
CCOCc1cc(COCC)cc(Nc2ncc(-c3ccc(-n4cccn4)cc3)o2)c1 [Example 022, (3,5-Bis-(ethoxymethyl)-phenyl)-[5-(4-pyrazol-1-yl-phenyl)-oxazol-2-yl]-amine] | > 1 | > 1 | > 1 | > 1 | > 1 | > 1 | > 1 | > 1 | > 1 | 0.5 to 1 | > 1 | > 1 | > 1 | > 1 | > 1 | > 1 | > 1 | 0.1 to 0.5 | > 1 | > 1 | IC50 (PLCPRF5): > 1 µM; IC50 [1]: 0.5 to 1 µM; IC50 (REC1): 0.5 to 1 µM; IC50 (BXPC3): > 1 µM; IC50 (H1299): > 1 µM; IC50 (CALU6): > 1 µM; IC50 (HL60): > 1 µM; IC50 (PANC1): > 1 µM
COc1ccc(C)c(Nc2ncc(-c3ccc(-n4cccn4)cc3)o2)c1 [Example 023, (5-Methoxy-2-methyl-phenyl)-[5-(4-pyrazol-1-yl-phenyl)-oxazol-2-yl]-amine] | > 1 | > 1 | > 1 | > 1 | 0.1 to 0.5 | > 1 | > 1 | > 1 | > 1 | 0.1 to 0.5 | > 1 | > 1 | > 1 | > 1 | 0.1 to 0.5 | > 1 | > 1 | 0.1 to 0.5 | > 1 | > 1 | IC50 (PLCPRF5): > 1 µM; IC50 [1]: 0.1 to 0.5 µM; IC50 (REC1): 0.1 to 0.5 µM; IC50 (BXPC3): > 1 µM; IC50 (H1299): > 1 µM; IC50 (CALU6): > 1 µM; IC50 (HL60): 0.1 to 0.5 µM; IC50 (PANC1): > 1 µM
Cc1ccc(COCCN)cc1Nc1ncc(-c2ccc(-n3cccn3)cc2)o1 [Example 024, [5-(2-Amino-ethoxymethyl)-2-methyl-phenyl]-[5-(4-pyrazol-1-yl-phenyl)-oxazol-2-yl]-amine] | > 1 | > 1 | > 1 | > 1 | > 1 | > 1 | > 1 | > 1 | > 1 | > 1 | > 1 | > 1 | > 1 | > 1 | > 1 | > 1 | > 1 | > 1 | > 1 | > 1 | IC50 (PLCPRF5): > 1 µM; IC50 [1]: > 1 µM; IC50 (REC1): > 1 µM; IC50 (BXPC3): > 1 µM; IC50 (H1299): > 1 µM; IC50 (CALU6): > 1 µM; IC50 (HL60): > 1 µM; IC50 (PANC1): > 1 µM
CC(=O)NCCOCc1ccc(C)c(Nc2ncc(-c3ccc(-n4cccn4)cc3)o2)c1 [Example 025, N-(2-{4-Methyl-3-[5-(4-pyrazol-1-yl-phenyl)-oxazol-2-ylamino]-benzyloxy}-ethyl)-acetamide] | > 1 | > 1 | > 1 | > 1 | > 1 | > 1 | > 1 | > 1 | > 1 | > 1 | > 1 | > 1 | > 1 | > 1 | > 1 | > 1 | > 1 | > 1 | > 1 | > 1 | IC50 (PLCPRF5): > 1 µM; IC50 [1]: > 1 µM; IC50 (REC1): > 1 µM; IC50 (BXPC3): > 1 µM; IC50 (H1299): > 1 µM; IC50 (CALU6): > 1 µM; IC50 (HL60): > 1 µM; IC50 (PANC1): > 1 µM
Cc1ccc(COCCO)cc1Nc1ncc(-c2ccc(-n3cccn3)cc2)o1 [Example 026, 2-{4-Methyl-3-[5-(4-pyrazol-1-yl-phenyl)-oxazol-2-ylamino]-benzyloxy}-ethanol] | > 1 | > 1 | > 1 | > 1 | > 1 | > 1 | > 1 | > 1 | > 1 | > 1 | > 1 | > 1 | > 1 | > 1 | > 1 | > 1 | > 1 | > 1 | > 1 | > 1 | IC50 (PLCPRF5): > 1 µM; IC50 [1]: > 1 µM; IC50 (REC1): > 1 µM; IC50 (BXPC3): > 1 µM; IC50 (H1299): > 1 µM; IC50 (CALU6): > 1 µM; IC50 (HL60): > 1 µM; IC50 (PANC1): > 1 µM
Cc1ccc(CO)cc1Nc1ncc(-c2ccc(-n3cccn3)cc2)o1 [Example 027, {4-Methyl-3-[5-(4-pyrazol-1-yl-phenyl)-oxazol-2-ylamino]-phenyl}-methanol] | > 1 | > 1 | > 1 | > 1 | > 1 | > 1 | > 1 | > 1 | > 1 | > 1 | > 1 | > 1 | > 1 | > 1 | > 1 | > 1 | > 1 | > 1 | > 1 | > 1 | IC50 (PLCPRF5): > 1 µM; IC50 [1]: > 1 µM; IC50 (REC1): > 1 µM; IC50 (BXPC3): > 1 µM; IC50 (H1299): > 1 µM; IC50 (CALU6): > 1 µM; IC50 (HL60): > 1 µM; IC50 (PANC1): > 1 µM
Cc1ccc(OCCN2CCOCC2)cc1Nc1ncc(-c2ccc(-n3cccn3)cc2)o1 [Example 029, [2-Methyl-5-(2-morpholin-4-yl-ethoxy)-phenyl]-[5-(4-pyrazol-1-yl-phenyl)-oxazol-2-yl]-amine] | > 1 | > 1 | > 1 | > 1 | > 1 | > 1 | > 1 | > 1 | > 1 | > 1 | > 1 | > 1 | > 1 | > 1 | > 1 | > 1 | > 1 | > 1 | > 1 | > 1 | IC50 (PLCPRF5): > 1 µM; IC50 [1]: > 1 µM; IC50 (REC1): > 1 µM; IC50 (BXPC3): > 1 µM; IC50 (H1299): > 1 µM; IC50 (CALU6): > 1 µM; IC50 (HL60): > 1 µM; IC50 (PANC1): > 1 µM
